Laboratory results reported in BindingDB's records for doi:10.1074/jbc.M113.496463 (National Institutes of Health, National Institutes of …, 2013).
Values joined by “and” are separate entries in the source; they are usually repeats but may differ in a detail not shown here. Equal entries are not always repeated.

What was measured:
[1] = target: T1, ATP-dependent DNA helicase DinG (Escherichia coli (strain K12), UniProt P27296); experiment: Helicase Assays; settings: pH 8
T1 sequence (P27296 whole entry): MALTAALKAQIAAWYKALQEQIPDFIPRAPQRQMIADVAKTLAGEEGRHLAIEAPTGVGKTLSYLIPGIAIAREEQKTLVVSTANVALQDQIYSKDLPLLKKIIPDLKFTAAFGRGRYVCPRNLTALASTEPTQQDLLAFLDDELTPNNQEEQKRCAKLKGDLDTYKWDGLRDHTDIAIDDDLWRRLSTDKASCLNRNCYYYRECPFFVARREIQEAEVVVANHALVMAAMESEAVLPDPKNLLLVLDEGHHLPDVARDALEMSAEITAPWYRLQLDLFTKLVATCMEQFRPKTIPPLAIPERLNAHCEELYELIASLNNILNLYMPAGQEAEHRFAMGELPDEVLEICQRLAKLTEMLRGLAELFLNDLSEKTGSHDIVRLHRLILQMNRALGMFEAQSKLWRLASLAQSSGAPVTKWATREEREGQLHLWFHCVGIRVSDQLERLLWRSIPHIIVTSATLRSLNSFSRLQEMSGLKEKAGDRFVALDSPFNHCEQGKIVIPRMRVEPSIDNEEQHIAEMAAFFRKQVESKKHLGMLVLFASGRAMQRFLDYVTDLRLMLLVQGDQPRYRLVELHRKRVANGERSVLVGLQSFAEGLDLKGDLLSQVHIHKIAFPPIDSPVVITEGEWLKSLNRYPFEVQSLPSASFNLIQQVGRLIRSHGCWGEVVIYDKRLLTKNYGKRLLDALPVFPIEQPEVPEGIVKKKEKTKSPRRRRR
Experimental: (§1) Standard helicase reaction mixtures (20μl) containing 5 fmol of the indicated TP-G4 or OX-1-G2' DNA substrates or forked duplex DNA substrate (0.25 nM DNA substrate concentration), 1mM ATP, and the indicated concentrations of the specified helicase were as previously described for FANCJ [Wu et al., Mol. Cell. Biol., 28:4116-4128] and DDX11 [Wu et al., J. Biol. Chem., 287:1007-1021]. Helicase reactions for XPD and DinG were performed in buffer that contained 20mM Tris-HCl (pH 8.0), 10mM KCl, 1mM dithiothreitol, 5mM MgCl2, and 100 μg/ml BSA. Reactions were performed at 37 °C for 15 min in the presence of 1 mM ATP, the DNA substrates mentioned above, and the indicated helicase protein concentrations. Forthe unimolecular Poly(A) Zic1-G4 DNA substrate, helicase reactions were performed in reaction buffer containing a 20-fold excess of peptide-nucleic acid complementary oligonucleotide [Giri et al., Nucleic Acids Res., 39:7161-7178]. G4 helicase reactions were terminated by th

[2] = target: T2, Fanconi anemia group J protein (Homo sapiens, UniProt Q9BX63); experiment: Helicase Assays; settings: pH 8
T2 sequence (Q9BX63 whole entry): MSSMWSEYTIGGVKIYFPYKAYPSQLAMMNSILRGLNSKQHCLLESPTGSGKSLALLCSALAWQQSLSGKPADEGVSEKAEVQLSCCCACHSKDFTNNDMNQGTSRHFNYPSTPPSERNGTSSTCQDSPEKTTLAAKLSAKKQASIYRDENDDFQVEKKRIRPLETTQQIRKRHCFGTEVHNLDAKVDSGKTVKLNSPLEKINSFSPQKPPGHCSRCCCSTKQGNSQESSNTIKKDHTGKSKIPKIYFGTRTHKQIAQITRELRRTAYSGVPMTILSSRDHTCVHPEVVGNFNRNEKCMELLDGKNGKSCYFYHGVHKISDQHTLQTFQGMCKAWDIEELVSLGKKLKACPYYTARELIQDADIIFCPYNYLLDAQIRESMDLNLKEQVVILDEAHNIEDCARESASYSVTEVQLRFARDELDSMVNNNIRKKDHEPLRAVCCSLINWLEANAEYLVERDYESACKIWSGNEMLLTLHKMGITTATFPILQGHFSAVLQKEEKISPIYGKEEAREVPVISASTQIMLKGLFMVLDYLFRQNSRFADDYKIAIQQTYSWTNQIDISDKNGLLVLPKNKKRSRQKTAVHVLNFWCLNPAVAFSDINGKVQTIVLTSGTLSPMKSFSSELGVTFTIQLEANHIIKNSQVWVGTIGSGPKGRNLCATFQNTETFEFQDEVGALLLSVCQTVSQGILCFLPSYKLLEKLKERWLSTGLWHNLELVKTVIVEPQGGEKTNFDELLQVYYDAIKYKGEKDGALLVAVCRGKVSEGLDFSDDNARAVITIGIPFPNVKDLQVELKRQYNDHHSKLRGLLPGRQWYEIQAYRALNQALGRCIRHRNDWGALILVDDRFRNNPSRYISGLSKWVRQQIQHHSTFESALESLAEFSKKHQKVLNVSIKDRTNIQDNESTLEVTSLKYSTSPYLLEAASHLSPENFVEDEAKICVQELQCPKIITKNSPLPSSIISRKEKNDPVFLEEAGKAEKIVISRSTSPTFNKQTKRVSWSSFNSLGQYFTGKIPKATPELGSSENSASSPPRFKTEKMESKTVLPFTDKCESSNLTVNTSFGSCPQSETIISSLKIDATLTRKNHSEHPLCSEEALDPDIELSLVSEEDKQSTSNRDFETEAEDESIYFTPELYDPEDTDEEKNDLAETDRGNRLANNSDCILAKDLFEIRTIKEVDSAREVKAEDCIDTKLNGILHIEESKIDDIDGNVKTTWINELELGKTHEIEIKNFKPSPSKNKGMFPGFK
Experimental: as §1

Row | Structure (SMILES) | IC50 [1] | IC50 [2]
1 | C[n+]1ccc(-c2c3nc(c(-c4cc[n+](C)cc4)c4ccc([nH]4)c(-c4cc[n+](C)cc4)c4nc(c(-c5cc[n+](C)cc5)c5ccc2[nH]5)C=C4)C=C3)cc1 | 1100 nM and 1200 nM | 2300 nM and 2900 nM and 4900 nM
2 | Cc1oc2nc1-c1nc(co1)-c1nc(co1)-c1nc(co1)-c1nc(co1)-c1nc(co1)C1=NC(CS1)c1nc-2c(C)o1 (stereo unspecified) [Telomestatin (TMS)] | 1.5 nM and 1 nM | 2.2 nM and 1.9 nM and 2 nM
3 | C[n+]1cc(NC(=O)c2ccc3ccc4ccc(C(=O)Nc5cc6ccccc6[n+](C)c5)nc4c3n2)cc2ccccc21 | 50 nM and 130 nM | 
4 | C[n+]1cccc2cc(NC(=O)c3ccc4ccc5ccc(C(=O)Nc6ccc7c(ccc[n+]7C)c6)nc5c4n3)ccc21 [Phen-DC6] | 60 nM and 55 nM | 
